In publication PMC11706420, “Establishing a physiologically based pharmacokinetic framework for aldehyde oxidase and dual aldehyde oxidase‐CYP substrates” (CPT: Pharmacometrics & Systems Pharmacology, 2024):
Where two headings read alike, the source gives them in different places.

Tests used:
[1] = Microsomal binding (fumic); settings: corrected with Hallifax&Houston algorithm
Method: Microsomal binding (fumic):
(§10) The fraction unbound in human liver microsomes (fumic) of compounds was determined by equilibrium
(§11) dialysis using the high-throughput dialysis method 2 using membranes from HTDialysis, LLC (Gales
(§12) Ferry, CT) having 12 to 14 kDa molecular mass cutoff. Deactivated HLM (by leaving the HLM
(§13) incubation media on the bench overnight at ambient temperature) at 0.25 mg/mL with 2 µM of
(§14) compounds (a final concentration of DMSO as 1%) was added to the donor compartment in 50 mM
(§15) phosphate buffer containing 1 M MgCl2. (150 µL, n=4 per compound). 150 µL of Dulbecco’s PBS
(§16) buffer (pH 7.4) was added to the receiver chamber for each replicate. After reaching equilibrium for 6
(§17) h on a plate shaker (200 rpm) at 37°C in a humidified CO2 incubator (5% CO2), aliquots from both the
(§18) receiver (45 µL) and donor (15 µL) sides of the membrane were matrix matched and analyzed by LC-
(§19) MS/MS. Matrix stability (n=3) and % of recovery (n=4) were assessed.
(§20) Data analysis for binding in microsomal and cytosolic incubations:
(§21) Fraction unbound in microsomal (fumic) and cytosolic (fucyt) incubations were calculated via Eq. S10-11
(§22) based on the ratio of the peak areas of analyte and internal standard.
(§23) 𝑃𝑒𝑎𝑘 𝐴𝑟𝑒𝑎 𝑅𝑎𝑡𝑖𝑜 = (𝑃𝑒𝑎𝑘 𝐴𝑟𝑒𝑎 𝑜𝑓 𝐴𝑛𝑎𝑙𝑦𝑡𝑒)/(𝑃𝑒𝑎𝑘 𝐴𝑟𝑒𝑎 𝑜𝑓 𝐼𝑛𝑡𝑒𝑟𝑛𝑎𝑙 𝑆 tan 𝑑 𝑎𝑟𝑑) (Eq. S10)
(§24) 𝑓𝑢𝑚𝑖𝑐 𝑜𝑟 𝑓𝑢𝑐𝑦𝑡 = (𝑃𝑒𝑎𝑘 𝐴𝑟𝑒𝑎 𝑅𝑎𝑡𝑖𝑜 𝑖𝑛 𝑟𝑒𝑐𝑒𝑖𝑣𝑒𝑟 𝑐𝑜𝑚𝑝𝑎𝑟𝑡𝑚𝑒𝑛𝑡)/
(§25) concentration (0.5 mg/mL) using Hallifax and Houston algorithm (Hallifax and Houston, 2006). Matrix
(§26) stability and recovery were assessed using Eq. S12 and Eq. S13.
(§27) %𝑠𝑡𝑎𝑏𝑖𝑙𝑖𝑡𝑦 = (𝐴𝑣𝑒𝑟𝑎𝑔𝑒 𝑝𝑒𝑎𝑘 𝑎𝑟𝑒𝑎 𝑖𝑛 𝑚𝑎𝑡𝑟𝑖𝑥 𝑎𝑡 𝑡ℎ𝑒 𝑒𝑛𝑑 𝑜𝑓 𝑖𝑛𝑐𝑢𝑏𝑎𝑡𝑖𝑜𝑛)/
(§28) (𝐴𝑣𝑒𝑟𝑎𝑔𝑒 𝑝𝑒𝑎𝑘 𝑎𝑟𝑒𝑎 𝑎𝑡 𝑇 = 0) × 100 (Eq. S12)
%𝑟𝑒𝑐𝑜𝑣𝑒𝑟𝑦 = (𝐴 + 𝐵)/𝐶 × 100 (Eq. S13)
(§29) where A is the average peak area ratio of all matrix samples, B is the average peak area ratio
(§30) of all buffer samples multiplied with the buffer dilution factor and C is the average peak area ratio of

[2] = Blood-to-plasma ratio (B/P); assay type: in vitro ADME, human
Description: Determination of blood to plasma ratio (B/P):
Whole human blood was collected on the day of the experiment from healthy volunteers. The collection protocol was approved by an independent ethical committee and all donors signed the consent forms. All samples were registered in the Janssen Biobank.
Prewarmed blood aliquots were mixed with the compounds (final concentrations shown in Suppl. Table 5) with a final organic DMSO solvent concentration of ≤0.1% (v/v). After gentle mixing to avoid haemolysis, blood aliquots were immediately collected for protein precipitation (1:1:8 ratios of blood sample:DMSO:ACN) and centrifugation (10 minutes, 3800 g) and the supernatant was used as a 0-minute reference blood sample. At the same time, blood aliquots were taken and centrifuged (10 minutes, 1200 g) to obtain the plasma portion. Plasma aliquots were then immediately collected for protein precipitation (1:1:8 ratios of plasma sample:DMSO:ACN) and centrifugation (10 minutes, 3800 g) and the supernatant was used as a 0-minute reference plasma sample. The remainder of the blood fraction was incubated (30 min at 37 °C). Following incubation, 30 -minute blood and plasma samples were taken and prepared as described for the reference 0-minute samples.
Mean compound concentration values (n=3 replicates) were calculated for both the blood and plasma samples. A blood-to-plasma concentration ratio was then determined using Eq. S4. […]

[3] = Cytosolic binding (fucyt), dog liver cytosol; settings: 1 mg/mL; n=3, mean (CV%)
Method: In vitro data were generated to inform the PBPK models of the selected drugs (Supplement 1 in Appendix S1; Table S1). Subcellular fractions of human and dog liver were sourced from XenoTech (Kansas City, KS, USA). In vitro CLint,u was measured with substrate depletion and binding assays for all compounds (1 μM) in human liver microsomes (HLM; 0.25–0.5 mg/mL) and HLC (1 mg/mL). HLC pool was prepared from livers perfused with Custodiol HTK (histidine tryptophan ketoglutarate) solution, marketed as having preserved “high AO/XO activity.”[15] Dog liver cytosols (DLC; 1 mg/mL) were used to investigate cytosolic binding in the absence of AO. Routine in vitro assays were used to quantify unbound fraction in plasma (fup), blood‐to‐plasma ratio (B/P), and apparent permeability (Papp) through transwell transport assays utilizing canine Mdr1 knockout and empty vector‐transfected MDCKI cells.
𝐶𝐿 = 𝑘 × 𝑣𝑜𝑙𝑢𝑚𝑒 𝑜𝑓 𝑖𝑛𝑐𝑢𝑏𝑎𝑡𝑖𝑜𝑛 (Eq S9)
Cytosolic binding (fucyt):
The fraction unbound in human liver cytosols (fucyt) of compounds was determined by equilibrium
dialysis using the RED device (Thermo Fisher, Waltham MA, USA) with a molecular weight cut-off of
8 kDa. Dog or human liver cytosols at 1 mg/mL with 1 µM of compounds (300 µL, n=3 per compound)
were added to the donor compartment in 100 mM potassium phosphate buffer with final DMSO
liver cytosols to inactivate AO, whereas dog was used as a natural AO knock-out model. 500 µL of 100
mM potassium phosphate buffer (pH 7.35) was added to the receiver chamber for each replicate.
RED device was then sealed with an adhesive foil and incubated on an orbital shaker at 450 rpm (VWR
Symphony) at 37°C with 5 % CO2. After reaching equilibrium for 4 hours, aliquots from both the
receiver (30µL) and donor (30µL) sides of the membrane were matrix matched, and then quenched with
180 µL of cold ACN with 100 nM propranolol (internal standard). The samples were placed in a
Beckman Coulter Allegra x 12R Centrifuge (Brea, CA) for 15 minutes at 3700 rpm. After centrifugation,
the supernatant of each sample was diluted 1:2 and analyzed by LC -MS/ MS. Matrix stability and
recovery were assessed in triplicates and followed identical sample preparation.
Microsomal binding (fumic):
as §10, §11, §12, §13, §14, §15, §16, §17, §18, §19, §20, §21, §22, §23, §24, §25, §26, §27, §28
%𝑟𝑒𝑐𝑜𝑣𝑒𝑟𝑦 = (𝐴 + 𝐵)/𝐶 × 100 (Eq. S13)
as §29

[4] = with 25 μM hydralazine; cited from earlier work
[5] = both, human, 6 h, 2 µM, pH 7.4
Method: Microsomal binding (fumic):
as §10, §11, §12, §13, §14, §15, §16, §17, §18, §19, §20, §21, §22, §23, §24, §25, §26, §27, §28
%𝑟𝑒𝑐𝑜𝑣𝑒𝑟𝑦 = (𝐴 + 𝐵)/𝐶 × 100 (Eq. S13)
as §29, §30

[6] = in vitro; settings: both, human, microsomes
Method: Subcellular fractions of human and dog liver were sourced from XenoTech (Kansas City, KS, USA). In vitro CLint,u was measured with substrate depletion and binding assays for all compounds (1 μM) in human liver microsomes (HLM; 0.25–0.5 mg/mL) and HLC (1 mg/mL).
Microsomal clearance incubations (CLint):
Human liver microsomes were stored at −80°C and rapidly thawed just before use at 37°C.
All compounds were mixed with HLM and 50 mM
phosphate buffer. 450 µL of the mixture was added to 1.2mL cluster tubes in a 96-well block in
duplicate and warmed in a water bath (Thermo Scientific Precision™,Waltham MA, USA ) at 37°C for
5 min. Reactions were initiated by the addition of 50 µL from 10 mM of NADPH stock in 50 mM
phosphate buffer (final NADPH concentration, 1 mM). The final incubation contained 1 µM test
compound in 500 µL total volume with 0.02% DMSO. At each time point (5, 10, 20, 30, and 60 min),
60 µL of incubation mixture was added to 120 uL of quench solutions (MeOH:ACN, 1:1, v:v)
containing internal standard (0.5 µM carbutamide). The mixture was centrifuged at 3000 rpm for 20
min (Eppendorf 5810R, Hamburg, Germany). Supernatant was injected to HPLC-MS/MS with for data
Data analysis for substrate depletion assays:
Data from the microsomal and cytosolic incubations were analyzed using GraFit 7 (Erithacus Software,
Horley, UK) to determine the elimination rate constant (k), which was used in CLint calculation (Eq.
S9). A nonlinear single exponential fit was used for all compounds.
𝐶𝐿 = 𝑘 × 𝑣𝑜𝑙𝑢𝑚𝑒 𝑜𝑓 𝑖𝑛𝑐𝑢𝑏𝑎𝑡𝑖𝑜𝑛 (Eq S9)

[7] = tested on: CYP3A4; settings: cited from earlier work
[8] = cited from earlier work
[9] = cited from earlier work; remark: listed apart in the source
[10] = cited from earlier work; remark: listed apart in the source
[11] = In vitro permeability (Papp), transwell transport; settings: dog, MDCK
[12] = Cytosolic binding (fucyt), human liver cytosol with AO inhibitor; settings: 1 mg/mL; n=3, mean (CV%)
[13] = Plasma protein binding (fup), rapid equilibrium dialysis; assay type: in vitro ADME, human; settings: male, human, plasma, 20 h, 1 µM
Method: (differing in 2 donors) were used for activity and microsomal binding assays, respectively.
The human biological samples were sourced ethically, and their research use was in accord with the terms of the informed consents under an IRB/EC approved protocol.
Determination of plasma protein binding (fup):
Human plasma (male, K2EDTA) was obtained from BioIVT (Baltimore, MD, USA). A pool of n=20 donors was prepared in-house (batch: 16062022). The plasma protein binding of compounds in human was determined by equilibrium dialysis using the rapid equilibrium dialysis (RED) device (Thermo […]
Frozen blank human plasma […]
solution to a final concentration of 1 µM (0.5 % DMSO). 300 µ L of the fortified plasma samples were subjected to dialysis against 500 µL PBS buffer at pH 7.4, for 6 h at 37 °C in triplicate. After dialysis, 200 µl aliquots of the buffer and the plasma compartments were transferred into micronic tubes. To minimize the potential for non -specific binding to the micronic tubes the buffer sam ples were collected on to 50µl of 10 % bovine serum albumin (BSA). For the assessment of test compound stability in plasma, 300 µl aliquots of the spiked plasma solutions were transferred into micronic tubes and incubated in an air heated incubator at 37°C without shaking for 4 and 20 hours. The remaining spiked protein solutions were frozen and used to measure the initial start concentration ( C0) to calculate the recovery. Sample analysis was achieved by LC -MS/MS and absolute quantification of the drug lev els in the buffer and plasma compartments was achieved via a matrix matched calibration curve (in the presence of an internal standard tolbutamide). All buffer and plasma sample sets were matrix matched […]
for analysis. The samples were centrifuged (15 minutes, 3400 g) and supernatants were transferred to a fresh plate for analysis. The unbound concentration (Cu), and the total concentration (CED) were determined by measurement of the concentration of the test compound in the buffer and plasma compartments of the dialysis cells, respectively. The fraction unbound was calculated using Eq. S1.
fuplasma = Cu/CED (Eq. S1)
The percentage recovery was calculated as the ratio of the sum of the amount in the buffer (Au) and plasma (AED) compartments to the amount at time zero (A0) (Eq. S2). The percentage stability was calculated as the ratio of the concentration of the test compound at the end of the incubation (C t) time […]
% recovery = (( Au + AED ) / A0 ) × 100 (Eq. S2)

[14] = molecular target: T1, aldehyde oxidase (AO) (Homo sapiens, UniProt Q06278); settings: cited from earlier work; for Mode of inhibition: ref suppl. 30, 31, 32, 35, 59
T1 sequence (Q06278 1-1338): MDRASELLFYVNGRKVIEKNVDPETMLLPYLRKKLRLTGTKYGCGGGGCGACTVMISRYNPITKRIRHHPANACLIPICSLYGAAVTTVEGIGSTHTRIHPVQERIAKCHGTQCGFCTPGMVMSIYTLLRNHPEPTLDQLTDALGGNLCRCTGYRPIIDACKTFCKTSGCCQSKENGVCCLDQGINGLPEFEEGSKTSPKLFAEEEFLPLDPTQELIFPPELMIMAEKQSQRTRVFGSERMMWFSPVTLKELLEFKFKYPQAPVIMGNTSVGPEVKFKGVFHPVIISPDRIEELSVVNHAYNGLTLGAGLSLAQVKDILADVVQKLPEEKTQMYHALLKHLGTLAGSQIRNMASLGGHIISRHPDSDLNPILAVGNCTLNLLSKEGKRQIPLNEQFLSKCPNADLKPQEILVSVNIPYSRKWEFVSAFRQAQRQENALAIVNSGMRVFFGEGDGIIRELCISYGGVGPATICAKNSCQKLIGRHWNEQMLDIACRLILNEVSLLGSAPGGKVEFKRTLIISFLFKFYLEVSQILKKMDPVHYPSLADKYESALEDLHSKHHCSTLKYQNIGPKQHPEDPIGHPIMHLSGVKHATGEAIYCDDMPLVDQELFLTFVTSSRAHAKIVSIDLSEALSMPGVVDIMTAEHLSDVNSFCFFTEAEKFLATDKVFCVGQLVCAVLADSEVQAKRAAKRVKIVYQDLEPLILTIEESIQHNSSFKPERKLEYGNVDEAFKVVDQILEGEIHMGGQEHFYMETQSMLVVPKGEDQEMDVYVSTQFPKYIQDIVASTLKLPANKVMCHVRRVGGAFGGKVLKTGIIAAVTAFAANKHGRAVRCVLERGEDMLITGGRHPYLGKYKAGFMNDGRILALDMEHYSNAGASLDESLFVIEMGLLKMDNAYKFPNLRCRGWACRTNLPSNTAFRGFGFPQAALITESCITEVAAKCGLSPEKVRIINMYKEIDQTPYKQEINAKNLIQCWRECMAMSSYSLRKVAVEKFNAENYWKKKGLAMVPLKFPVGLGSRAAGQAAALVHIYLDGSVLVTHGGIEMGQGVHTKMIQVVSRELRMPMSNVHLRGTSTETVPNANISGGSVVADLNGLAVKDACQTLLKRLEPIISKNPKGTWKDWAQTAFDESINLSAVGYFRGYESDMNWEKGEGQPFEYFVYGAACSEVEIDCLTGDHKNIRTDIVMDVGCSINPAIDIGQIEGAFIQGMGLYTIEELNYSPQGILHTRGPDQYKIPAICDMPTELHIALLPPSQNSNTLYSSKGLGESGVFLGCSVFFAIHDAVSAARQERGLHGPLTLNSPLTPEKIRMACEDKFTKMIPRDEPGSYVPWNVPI

[15] = Inhibitor plasma exposure and plasma binding (literature); assay type: in vivo, human; settings: Figure 5
Description: (§1) Supplement 5. Exploratory analysis to evaluate potential AO-mediated DDI risks […]
(§2) Semi-mechanistic model for AO-mediated DDI risk predictions
(§3) Supp. Table 4. Summary of inhibitor parameters used in the semi -mechanistic static model to evaluate the risk of AO -mediated DDIs
(§4) Semi-mechanistic model for AO mediated DDI risk predictions: […]
(§5) using the semi-mechanistic static model with listed parameters in Suppl. Table 4. The most conservative approach is used for all compounds with maximum Cmax,u and minimum Ki,u data available. […]
(§6) [I] is the unbound concentration of inhibitors in the liver and was designated as the unbound maximum systemic concentration of inhibitors as a surrogate. 27 Due to the lack of AO kdeg values in the literature, the arithmetic means of all reported P450 kdeg (0.00026 min-1) was used.28, 29 […]
(§7) Table S4. Summary of inhibitor parameters used in the semi-mechanistic static model to evaluate the risk of […]
(§8) bSimcyp v.21 Compound Repository […]
(§9) dCorrected for the 0.05 mg/mL cytosolic protein from the measured fuinc at 1.5 mg/mL cytosolic protein34, 36

[16] = tested on: UGT1A1; parameters: method as in suppl. 32; settings: ref suppl. 32; cited from earlier work
[17] = tested on: UGT1A3; parameters: method as in suppl. 32; settings: ref suppl. 32; cited from earlier work
[18] = molecular target: T1, aldehyde oxidase (AO); assay: In vitro AO inhibition (literature); settings: Figure 5
Description: as §1, §2, §3, §4, §5, §6, §7, §8, §9

[19] = in vivo; cited from earlier work
[20] = molecular target: T1, aldehyde oxidase (AO); settings: cited from earlier work
[21] = DDI study with rifampicin (capmatinib 400, idelalisib 150, lenvatinib 24 mg) or carbamazepine (ziprasidone 20 mg), observed, ref suppl. 15,18,21,25
[22] = with itraconazole (capmatinib 200 mg) or ketoconazole (idelalisib 400, lenvatinib 5, ziprasidone 40 mg), observed, ref suppl. 15,10,17,20,24
[23] = with rifampicin (capmatinib 400, idelalisib 150, lenvatinib 24 mg) or carbamazepine (ziprasidone 20 mg), observed, ref suppl. 15,18,21,25
[24] = observed (mass balance), capmatinib 600 mg section, ref suppl. 8

In the case of `CNC(=O)c1ccc(-c2cnc3ncc(Cc4ccc5ncccc5c4)n3n2)cc1F` [Capmatinib], the “Predicted fumic for 0.5 mg/mL” value [1] is reported as 0.707, the “Predicted fumic for 1 mg/mL” value [1] is reported as 0.549 and the B/P ([2]; 10 ng/mL) is reported as 3.95. The B/P ([2]; 5000 ng/mL) was 1.37, the “fucyt, Dog Liver Cytosol with 50 uM Hydralazine” value [3] was 0.718 (2.47) and the “HH CLint, non-AO” value [4] was 7.8[21] μL/min/10^6 hepatocytes. For the same compound, the “fumic (PBPK input)” value [5] was 0.826, the microsomal CLint at 1 µM [6] was 30.4 µL/min/mg and the “Cmax, control” value ([7]; DDI study with itraconazole (capmatinib 200 mg) or ketoconazole (idelalisib 400, lenvatinib 5, ziprasidone 40 mg), observed geomean (CV%), ref suppl. 15,10,17,20,24) was 1260 ng/mL. For the same compound, the “AUCinf, control” value ([7]; DDI study with itraconazole (capmatinib 200 mg) or ketoconazole (idelalisib 400, lenvatinib 5, ziprasidone 40 mg), observed, ref suppl. 15,10,17,20,24) was 5180 ng·h/mL, the “AUCinf, control (AUC0-12 for ziprasidone)” value [7, 21] was 11500 ng·h/mL and the “Cmax, control” value [7, 21] was 3070 ng/mL. The “AUCinf, interaction” value [7, 22] was 7360 ng·h/mL, the “Cmax, interaction” value [7, 22] was 1300 ng/mL and the “AUCinf, interaction (AUC0-12 for ziprasidone)” value [7, 23] was 3850 ng·h/mL. The “Cmax, interaction” value [7, 23] was 1350 ng/mL, the pKa1 ([8]; 47 (per cell)) was 12.8[44] and the pKa2 ([8]; 47 (per cell)) was 4.55[44]. The logP ([8]; octanol-water, 12 (per cell)) was 3.04[44], the fa [9] was 0.67[48] and the AUCinf ([9]; human, in vivo, po) was 14400 (36.9) ng.h/mL. The CLoral ([9]; human, in vivo, po) was 51.7 (66.5) L/h, the Cmax ([9]; human, in vivo, po) was 3670 (46.6) ng/mL and the CLRenal ([9]; observed, ref Table S2/S3 studies) was “Negligible”. For the same compound, the “CLiv/oral [CV%]” value ([9]; oral, capmatinib weighted mean and CV, ref Table S2/S3 studies) was 42.3 [60] (weighted mean and CV) L/h, the fmAO ([10]; measured in excreta, ref suppl. 8-13) was 0.40 and the fmAO ([10]; measured in excreta, ref suppl. 8-13, listed as capmatinib) was 0.4. The fmAO ([10]; observed (mass balance), min-max where uncertain, Table S10, ref suppl. 8-13) was 40, the fmCYP3A4 ([10]; observed (mass balance), min-max where uncertain, ref suppl. 8-12) was 60 and the fmAO [10, 24] was 40. The fmCYP3A4 [10, 24] was 60, the fmAO ([10]; observed, mass balance) was 40% and the fmCYP3A4 ([10]; ref suppl. 8-12) was 0.6. The Papp A→B at 120 min, 5 µM [11] was 32 ×10⁻⁶ cm/s, the Papp B→A at 120 min, 5 µM [11] was 29.5 ×10⁻⁶ cm/s and the efflux ratio at 120 min, 5 µM [11] was 0.921. The “fucyt, Human Liver Cytosol with 5 uM Raloxifene” value [12] was 0.777 (8.48), the “fucyt, Human Liver Cytosol with 50 uM Hydralazine” value [12] was 0.831 (2.65) and the “% Stability in plasma” value [13] was 78.8%.

In the case of `C#Cc1cccc(Nc2ncnc3cc(OCCOC)c(OCCOC)cc23)c1` [Erlotinib], the Mode of inhibition [14] is listed as “Time-dependent”, the “Cmax,u” value [15] is listed as 0.42 µM and the IC50 [16] is listed as 1.34 µM. For the same compound, the Ki [17] was 3.02 µM, the Ki ([18]; KI,u) was 0.5 µM and the Ki ([18]; Ki,u) was 0.13 µM. For the same compound, the Cmax [19] was 6.06 µM.

For `C#Cc1cccc(Nc2ncnc3cc4c(cc23)OCCOCCOCCO4)c1` [Icotinib], the Mode of inhibition [14] is listed as “Time-dependent”, the “Maximal inactivation rate (kinact)” value ([14]; ref suppl. 32) is listed as 0.55 min⁻¹ and the “Cmax,u” value [15] is listed as 0.57 µM. For the same compound, the IC50 [16] was 12.2 µM, the Ki [17] was 25.6 µM and the Ki ([18]; cytosol, KI,u) was 0.92 µM. It also gave a Ki ([18]; cytosol, Ki,u) of 0.35 µM.

For `O=C(Nc1ccc(OC(F)(F)F)cc1)c1sccc1NCc1ccnc2ccccc12` [OSI-930], the “fmAO of victim drug in AO DDI reports” value [20] is listed as 0.46.

In the case of `NC(=O)c1nc(F)c[nH]c1=O` [favipiravir], the “fmAO of victim drug in AO DDI reports” value [20] is given as 0.9.
